Experimental data reported in patent US9487476B2, “Catechol diethers as potent anti-HIV agents” (priority 2011, dated 2016).
Read-outs that look alike come from different tables or passages of the source.

What was measured:
HIV-1 Y181C variant [1] = settings: literature; read-out: reported anti-HIV activity, Y181C; cited from earlier work
[2] = system: HIV-1 K103N/Y181C variant; settings: literature; read-out: reported anti-HIV activity, K103N/Y181C; cited from earlier work
[3] = system: HIV-1 variant containing the Y181C (Tyr181Cys) mutation; test: Anti-HIV-1 activity against variant strain in MT-2 cells (MTT); type: cell-based
MT-2 human T-cells = test: Cytotoxicity, inhibition of MT-2 cell growth; type: cell-based
WT HIV-1 (IIIB strain) = test: Anti-HIV-1 activity, protection of infected MT-2 cells (MTT); type: cell-based
[4] = system: HIV-1 variant containing the K103N/Y181C mutations; test: Anti-HIV-1 activity against double-mutant strain in MT-2 cells (MTT); type: cell-based
[5] = Cytotoxicity, inhibition of MT-2 cell growth; type: cell-based, human; settings: human
WT HIV-1 [6] = settings: literature; read-out: reported anti-HIV activity, WT HIV-1; cited from earlier work
WT HIV-1 [7] = settings: Table 5, literature data (ref. 28), MT4 cells; cited from earlier work
[8] = system: HIV-1 K103N/Y181C variant; settings: Table 5, literature data (ref. 28), MT4 cells; cited from earlier work
HIV-1 Y181C variant [9] = settings: Table 5, literature data (ref. 28), MT4 cells; cited from earlier work
MT4 cells = settings: Table 5, literature data (ref. 28); cited from earlier work
[10] = Human immunodeficiency virus 1, MT2, read-out: EC50 Y181C
[11] = Human immunodeficiency virus 1, MT2, read-out: EC50 Y181C variant
[12] = Human immunodeficiency virus 1, IIIB, MT2, running text, read-out: EC50 against WT HIV-1
[13] = Human immunodeficiency virus 1, MT2, read-out: EC50 K103N/Y181C
[14] = Human immunodeficiency virus 1, MT2, read-out: EC50 K103N/Y181C variant
[15] = Table 5, MT-2 cells, read-out: EC50 Y181C
[16] = Table 4, MT-2 cells, read-out: Cytotoxicity (CC50)
[17] = Table 5, MT-2 cells, read-out: Average Cytotoxicity (CC50)
[18] = Table 4, catechol diether derivatives, MT-2 cells, read-out: Anti-HIV-1 Activity (EC50)
[19] = Table 5, MT-2 cells, read-out: EC50 WT
[20] = Table 5, MT-2 cells, read-out: EC50 K103N/Y181C
[21] = Human immunodeficiency virus 1, IIIB, MT2, read-out: Anti-HIV Activity (EC50)

## Cc1cc(C)cc(Oc2c(CSCc3ccco3)c(C)[nH]c(=O)c2I)c1 [Compound 3]
HIV-1 Y181C variant [1]
  EC50: < 10 nM
[2]
  EC50: < 10 nM

## N#Cc1cc(Cl)cc(Oc2ccc(Cl)cc2OCCn2cc(Cl)c(=O)[nH]c2=O)c1 [Compound 27, 3-chloro-5-(4-chloro-2-(2-(5-chloro-2,4-dioxo-3,4-dihydropyrimidin-1(2H)-yl)ethoxy)phenoxy)benzonitrile]
[3]
  ratio between variant and WT activities (Y181C/WT): 14 fold
[3]; [10]
  EC50: 240 nM
[3]; [11]
  EC50: 240 nM
MT-2 human T-cells; human
  CC50: 21000 nM
WT HIV-1 (IIIB strain); [12]
  EC50: 17 nM
[4]
  ratio between variant and WT activities (K103N/Y181C / WT): 34 fold
[4]; [13]
  EC50: 570 nM
[4]; [14]
  EC50: 570 nM

## N#C/C=C/c1cc(Cl)cc(Oc2ccc(Cl)cc2OCCn2ccc(=O)[nH]c2=O)c1 [Compound 42, (E)-3-(3-chloro-5-(4-chloro-2-(2-(2,4-dioxo-3,4-dihydropyrimidin-1(2H)-yl)ethoxy)phenoxy)phenyl)acrylonitrile]
[3]; [10]
  EC50: 49 nM
[3]; [11]
  EC50: 49 nM
[5]
  CC50: 10000 nM
WT HIV-1 (IIIB strain); CC50 towards human T-cells vs WT EC50
  therapeutic index: > 180,000
WT HIV-1 (IIIB strain); Human immunodeficiency virus 1, IIIB, MT2, read-out: EC50, initial WT assay
  EC50: 0.024 nM
WT HIV-1 (IIIB strain); Human immunodeficiency virus 1, IIIB, MT2, running text, side-by-side re-assay, read-out: EC50 against WT HIV-1
  EC50: 0.055 nM
[4]; [13]
  EC50: 220 nM
[4]; [14]
  EC50: 220 nM

## CNc1ccc(Oc2cc(Cl)cc(/C=C/C#N)c2)c(OCCn2ccc(=O)[nH]c2=O)c1 [Compound 43, (E)-3-(3-chloro-5-(2-(2-(2,4-dioxo-3,4-dihydropyrimidin-1(2H)-yl)ethoxy)-4-(methylamino)phenoxy)phenyl)acrylonitrile]
[3]; [10]
  EC50: 2800 nM
[5]
  CC50: 30000 nM
WT HIV-1 (IIIB strain); [12]
  EC50: 20 nM

## N#Cc1cc(Cl)cc(Oc2cc(OCc3n[nH]c4ccccc34)ccc2Cl)c1 [Compound 72]
HIV-1 Y181C variant [1]
  EC50: 13.8 nM
[2]
  EC50: 141 nM
WT HIV-1 [6]
  EC50: 4.7 nM

## N#Cc1cc(Cl)cc(Oc2c(Cl)ccc(Cc3n[nH]c4nnccc34)c2F)c1 [Compound 73]
[2]
  EC50: 4 nM
WT HIV-1 [6]
  EC50: 1 nM

## N#C/C=C/c1cc(F)cc(Oc2ccc(Cl)cc2OCCn2ccc(=O)[nH]c2=O)c1 [JLJ505]
[3]; [15]
  EC50: 150 nM
MT-2 human T-cells; [16]
  CC50: > 48000 nM
MT-2 human T-cells; [17]
  CC50: ≥ 48000 nM
WT HIV-1 (IIIB strain); [18]
  EC50: 3.2 nM
WT HIV-1 (IIIB strain); [19]
  EC50: 3.2 nM
[4]; [20]
  EC50: 900 nM

## N#C/C=C/c1cc(F)cc(Oc2ccc(F)cc2OCCn2ccc(=O)[nH]c2=O)c1 [JLJ506]
[3]; [15]
  EC50: 16 nM
MT-2 human T-cells; [16]
  CC50: > 45000 nM
MT-2 human T-cells; [17]
  CC50: ≥ 45000 nM
WT HIV-1 (IIIB strain); [18]
  EC50: 0.342 nM
WT HIV-1 (IIIB strain); [19]
  EC50: 0.342 nM
[4]; [20]
  EC50: 85 nM

## N#C/C=C/c1cc(F)cc(Oc2ccccc2OCCn2ccc(=O)[nH]c2=O)c1 [JLJ510]
[3]; [15]
  EC50: 80 nM
MT-2 human T-cells; [16]
  CC50: 70000 nM
MT-2 human T-cells; [17]
  CC50: 85000 nM
WT HIV-1 (IIIB strain); [18]
  EC50: 0.9 nM
WT HIV-1 (IIIB strain); [19]
  EC50: 0.9 nM
[4]; [20]
  EC50: 75 nM

## N#C/C=C/c1cc(Cl)cc(Oc2ccc(F)cc2OCCn2ccc(=O)[nH]c2=O)c1 [JLJ516]
[3]; [15]
  EC50: 60 nM
MT-2 human T-cells; [16]
  CC50: 62000 nM
MT-2 human T-cells; [17]
  CC50: 63000 nM
WT HIV-1 (IIIB strain); [18]
  EC50: 0.77 nM
WT HIV-1 (IIIB strain); [19]
  EC50: 0.77 nM
[4]; [20]
  EC50: 250 nM

## N#C/C=C/c1cc(Cl)cc(Oc2ccccc2OCCn2ccc(=O)[nH]c2=O)c1 [JLJ532]
[3]; [15]
  EC50: 46 nM
MT-2 human T-cells; [16]
  CC50: 18000 nM
MT-2 human T-cells; [17]
  CC50: 11000 nM
WT HIV-1 (IIIB strain); [18]
  EC50: 0.31 nM
WT HIV-1 (IIIB strain); [19]
  EC50: 0.31 nM
[4]; [20]
  EC50: 24 nM

## Cc1cc2cc(Oc3cc(Cl)ccc3OCCn3ccc(=O)[nH]c3=O)ccc2o1 [JLJ538]
[5]
  CC50: 8000 nM
WT HIV-1 (IIIB strain); [21]
  EC50: 25 nM

## O=c1ccn(CCOc2ccc(Cl)cc2Oc2ccc3occc3c2)c(=O)[nH]1 [JLJ539]
[5]
  CC50: 19000 nM
WT HIV-1 (IIIB strain); [21]
  EC50: 800 nM

## O=c1ccn(CCOc2ccccc2Oc2ccc3[nH]ccc3c2)c(=O)[nH]1 [JLJ547]
[5]
  CC50: 53000 nM
WT HIV-1 (IIIB strain); [21]
  EC50: 85 nM

## Cc1cc2cc(Oc3ccccc3OCCn3ccc(=O)[nH]c3=O)ccn2c1 [JLJ550]
[5]
  CC50: 9000 nM
WT HIV-1 (IIIB strain); [21]
  EC50: 50 nM

## O=c1ccn(CCOc2ccc(Cl)cc2Oc2ccc3ccoc3c2)c(=O)[nH]1 [JLJ552]
[5]
  CC50: 50000 nM
WT HIV-1 (IIIB strain); [21]
  EC50: 900 nM

## N#Cc1cc2cc(Oc3ccccc3OCCn3ccc(=O)[nH]c3=O)ccn2c1 [JLJ555]
[5]
  CC50: > 100000 nM
WT HIV-1 (IIIB strain); [21]
  EC50: 0.38 nM

## O=C1Nc2ccc(Cl)cc2[C@@](C#CC2CC2)(C(F)(F)F)O1 [efavirenz]
WT HIV-1 [7]
  EC50: 1.4 nM
[8]
  EC50: 37 nM
HIV-1 Y181C variant [9]
  EC50: 2 nM

## Cc1cc(C#N)cc(C)c1Oc1nc(Nc2ccc(C#N)cc2)nc(N)c1Br [etravirine]
[8]
  EC50: 4 nM
HIV-1 Y181C variant [9]
  EC50: 7 nM

## Cc1cc(/C=C/C#N)cc(C)c1Nc1ccnc(Nc2ccc(C#N)cc2)n1 [rilpivirine, 4-[[4-[[4-[(1E)-2-cyanoethenyl]-2,6-dimethylphenyl]amino]-2-pyrimidinyl]amino]benzonitrile]
WT HIV-1 [7]
  EC50: 0.4 nM
MT4 cells
  CC50: 8000 nM
MT-2 human T-cells; human
  CC50: > 1000 nM
[8]
  EC50: 1 nM
HIV-1 Y181C variant [9]
  EC50: 1.3 nM
